Reference: patent US4528190A, “GRF Analogs IV” (The Salk Institute For Biological Studies, priority 1984, dated 1985)
Square brackets hold non-standard residues; d marks the D form. Ends that are not written are not given here. Peptide text beside a SMILES is read from it. Nle = CCCC[C@H](N)C(=O)O

System: cells of rat pituitary glands
Experiment: in vitro GH release from cultured rat pituitary cells, compared side by side with synthetic hpGRF(1-40)-OH as standard
Assay type: cell-based
Conditions: GH release relative to standard hGRF(1-40)-OH = 100%; equimolar concentrations; incubation 3 to 4 hours; immunoreactive GH by radioimmunoassay
Protocol: To determine the relative effectiveness of certain representative synthetic peptides to promote the release of growth hormone, in vitro assays are carried out using synthetic hpGRF(1-40)-OH as a standard in side-by-side comparison with equimolar concentrations of the representative analogs which have been synthesized. Cultures are used which include cells of rat pituitary glands removed some three to five days previously. Such cultures are considered optimal for the secretion of growth hormone and are used for the comparative testing, in the general manner described in Vale et al. Endocrinology, 91, 562-572 (1972) and as more particularly described in Vale et al. Endocrinology, 112, 1553-1555 (1983). Incubation with the substance to be tested is carried out for 3 to 4 hours, and aliquots of the culture medium are removed and processed to measure their contents in immunoreactive GH(ir GH) by a well-characterized radioimmunoassay.

| Compound | Comparison % [%] |
| --- | --- |
| CCCC[C@H](NC(=O)[C@@H](NC(=O)[C@H](CCC(=O)O)NC(=O)[C@H](Cc1c[nH]cn1)NC(=O)[C@H](CC(C)C)NC(=O)[C@H](CC(C)C)NC(=O)[C@H](CCCCN)NC(=O)[C@H](CCCNC(=N)N)NC(=O)[C@H](C)NC(=O)[C@H](Cc1ccc(O)cc1)NC(=O)[C@H](CC(C)C)NC(=O)[C@H](CCC(N)=O)NC(=O)CNC(=O)[C@@H](CC(C)C)NC(=O)[C@@H](NC(=O)[C@H](CCCNC(=N)N)NC(=O)[C@H](CCCNC(=N)N)NC(=O)[C@H](Cc1ccc(O)cc1)NC(=O)[C@H](CO)NC(=O)[C@H](CO)NC(=O)[C@@H](NC(=O)[C@H](Cc1ccccc1)NC(=O)[C@@H](NC(=O)[C@H](C)NC(=O)[C@H](CC(=O)O)NC(=O)[C@H](C)NC(=O)[C@@H](N)Cc1c[nH]cn1)[C@@H](C)CC)[C@@H](C)O)[C@@H](C)CC)[C@@H](C)CC)C(=O)N[C@@H](CC(N)=O)C(=O)N[C@@H](CCCNC(=N)N)C(N)=O [[D-Leu^14, Nle^27]-rGRF(1-29)-NH2] (H-HADAIFTSSYRRI[dL]GQLYARKLLHEI[Nle]NR-NH2) | 120 |
| hGRF(1-40)-OH (YADAIFTNSYRKVLGQLSARKLLQDIMSRQQGESNQERGA-OH; UniProt P01286 32-71, looked up, fragment) [synthetic human pancreatic (tumor) GH releasing factor, residues 1-40, free acid; standard for the tests, reference compound] | 100 |
| CCCC[C@H](NC(=O)[C@@H](NC(=O)[C@H](CCC(=O)O)NC(=O)[C@H](Cc1c[nH]cn1)NC(=O)[C@H](CC(C)C)NC(=O)[C@H](CC(C)C)NC(=O)[C@H](CCCCN)NC(=O)[C@H](CCCNC(=N)N)NC(=O)[C@H](C)NC(=O)[C@H](Cc1ccc(O)cc1)NC(=O)[C@H](CC(C)C)NC(=O)[C@H](CCC(N)=O)NC(=O)CNC(=O)[C@H](CC(C)C)NC(=O)[C@@H](NC(=O)[C@H](CCCNC(=N)N)NC(=O)[C@H](CCCNC(=N)N)NC(=O)[C@H](Cc1ccc(O)cc1)NC(=O)[C@H](CO)NC(=O)[C@H](CO)NC(=O)[C@@H](NC(=O)[C@H](Cc1ccccc1)NC(=O)[C@@H](NC(=O)[C@H](C)NC(=O)[C@H](CC(=O)O)NC(=O)[C@H](C)NC(=O)[C@@H](N)Cc1c[nH]cn1)[C@@H](C)CC)[C@@H](C)O)[C@@H](C)CC)[C@@H](C)CC)C(=O)N[C@@H](CC(N)=O)C(=O)N[C@H](CCCNC(=N)N)C(N)=O [[Nle^27, D-Arg^29]-rGRF(1-29)-NH2] (H-HADAIFTSSYRRILGQLYARKLLHEI[Nle]N[dR]-NH2) | 386 |
